Values after ≈ are worked out from the molar mass of the structure shown. Blank lines part the entries; values can stand above or below the molecule they belong to.
Assays:
[1] = Evaluation of solubility: concentration of hardly soluble polyphenol dissolved in ion-exchanged water, quantified by HPLC; assay type: physicochemical; conditions: sample added to ion-exchanged water at 1 g/L, shaken at 25° C. for 5 minutes, filtered 0.8 μm
Experimental: Hardly soluble polyphenols were each quantified by a gradient method using a high-performance liquid chromatograph manufactured by Hitachi, Ltd. with a column Cadenza CD-C18 (4.6 mmφ×150 mm, 3 μm) manufactured by Imtakt Corporation at a column temperature of 40° C.
A mobile phase, solution A, was 0.05 mol/L acetic acid aqueous solution, and the other mobile phase, solution B, was acetonitrile. Flow rate was 1.0 mL/min. Gradient conditions are shown below.
In addition, ellagic acid was quantified using the same device except that only gradient conditions were set as shown below.
The sample injection volume was 10 μL, and quantification was carried out on the basis of an absorbance at a wavelength of 254 nm.
A sample was added to ion-exchanged water at 1 g/L, and the resultant was shaken at 25° C. for 5 minutes. After that, the resultant was filtered with a cellulose acetate filter having a pore size of 0.8 μm, and the concentration of a hardly soluble polyphenol dissolved was measured by the above-mentioned quantification method.

[2] = X-ray diffraction analysis: crystallinity degree of ellagic acid; assay type: physicochemical; conditions: powder X-ray diffraction, FIG. 1 to FIG. 3
Experimental: The crystallinity degree of the hardly soluble polyphenol may be calculated by the following method. First, diffraction intensity values determined by an X-ray diffraction method are subjected to peak separation into a crystalline diffraction line and an amorphous halo through profile fitting without considering effects of incoherent scattering, a lattice defect, and the like. Next, the crystallinity degree of a hardly soluble polyphenol is calculated by the following calculation equation (2) from the resultant integrated intensities of the respective peaks: Crystallinity degree (%) of hardly soluble polyphenol=[ΣIα/(ΣIα+ΣIam)]×100 (2) where ΣIα represents a sum of integrated intensities of respective peaks in a crystalline diffraction line, and ΣIam represents a sum of integrated intensities of respective peaks in a diffraction line of an amorphous part.
An X-ray diffraction intensity was measured using “Mini Flex II” manufactured by Rigaku Corporation under the conditions of: an X-ray source of Cu/Kα-radiation; a tube voltage of 30 kV; a tube current of 15 mA; a measurement range of from 5° to 40° in terms of a diffraction angle; and an X-ray scan speed of 10°/min. A sample for measurement was prepared by compressing a pellet having an area of 400 mm^2 and a thickness of 0.5 mm.

[3] = cited from earlier work

- Amount of ellagic acid dissolved [1]: 0.0053 g/L
- crystallinity degree of ellagic acid [2]: 87%
Compound: O=c1oc2c(O)c(O)cc3c(=O)oc4c(O)c(O)cc1c4c23 [Comparative Example 1, Ellagic acid]
- solubility in water (25° C.) [3]: 5 µg/mL (≈ 16.5 µM)

Compound: O.O.O=c1c(O)c(-c2ccc(O)c(O)c2)oc2cc(O)cc(O)c12 [Comparative Example 5, Quercetin dihydrate]
- Amount of quercetin dissolved [1]: 0.005 g/L

- Amount of curcumin dissolved [1]: 0.001 g/L
Compound: COc1cc(/C=C/C(=O)CC(=O)/C=C/c2ccc(O)c(OC)c2)ccc1O [Comparative Example 7, Curcumin]

- Amount of nobiletin dissolved [1]: 0.007 g/L
Compound: COc1ccc(-c2cc(=O)c3c(OC)c(OC)c(OC)c(OC)c3o2)cc1OC [Comparative Example 8, Nobiletin]

Compound: c1cc2c(cc1[C@H]1OC[C@H]3[C@@H]1CO[C@@H]3c1ccc3c(c1)OCO3)OCO2 [Comparative Example 9, Sesamin]
- Amount of sesamin dissolved [1]: 0.0001 g/L

- Amount of resveratrol dissolved [1]: 0.03 g/L
Compound: Oc1ccc(C=Cc2cc(O)cc(O)c2)cc1 [Comparative Example 11, Resveratrol]

- Amount of naringenin dissolved [1]: 0.008 g/L
Compound: O=C1C[C@@H](c2ccc(O)cc2)Oc2cc(O)cc(O)c21 [Comparative Example 12, Naringenin]
